Source: US9255132B2, “Angiopoietin derived peptides” (Compugen Ltd., priority 2008, dated 2016)
Residues, ends and D or L forms follow the SMILES beside them.

Molecular target: T1, human Ang2 (Homo sapiens, UniProt O15123)
T1 construct: purchased R&D Systems 623-AN-025/CF
T1 sequence (O15123 19-496): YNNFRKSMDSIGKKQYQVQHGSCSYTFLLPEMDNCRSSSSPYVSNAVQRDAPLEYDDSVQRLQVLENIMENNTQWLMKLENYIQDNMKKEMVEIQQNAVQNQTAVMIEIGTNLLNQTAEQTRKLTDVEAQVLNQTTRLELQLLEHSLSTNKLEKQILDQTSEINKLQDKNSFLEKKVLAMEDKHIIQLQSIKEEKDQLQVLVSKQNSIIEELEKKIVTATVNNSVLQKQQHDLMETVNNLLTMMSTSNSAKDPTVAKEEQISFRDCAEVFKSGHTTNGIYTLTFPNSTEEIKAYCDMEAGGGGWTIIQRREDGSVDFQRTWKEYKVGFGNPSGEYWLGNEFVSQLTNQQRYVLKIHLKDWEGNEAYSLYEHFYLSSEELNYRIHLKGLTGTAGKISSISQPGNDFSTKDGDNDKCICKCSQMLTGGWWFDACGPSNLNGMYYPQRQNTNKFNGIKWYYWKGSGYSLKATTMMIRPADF
Experiment: BIACORE (SPR) binding of peptides to immobilized recombinant Ang2
Details: CM5 chip, 10-50 μM peptide
Source text: The capability of CGEN-H2 [SEQ ID NO: 1], CGEN-H3 [SEQ ID NO: 2], CGEN-A8 [SEQ ID NO: 3], CGEN-H7 [SEQ ID NO: 4], CGEN-G4 [SEQ ID NO: 5], CGEN-G6 [SEQ ID NO: 6], CGEN-F9 [SEQ ID NO: 7], CGEN-F12 [SEQ ID NO: 8], CGEN-C6-30 [SEQ ID NO: 9], CGEN-All [SEQ ID NO: 10], and CGEN-G2 [SEQ ID NO: 11] to specifically bind to recombinant Ang1, Ang2, and Ang4 was investigated using the BIACORE technology, measuring protein-protein interaction and binding affinity (Wendler et al 2005, Anal Bioanal Chem, 381: 1056-1064). The technology is based on surface plasmon resonance (SPR), an optical phenomenon that enables detection of unlabeled interactants in real time. The SPR-based biosensors can be used in determination of active concentration, screening and characterization in terms of both affinity and kinetics.
Peptide-protein binding was analyzed using surface plasmon resonance. Analysis of the to interaction between CGEN-H2 [SEQ ID NO: 1], CGEN-H3 [SEQ ID NO: 2], CGEN-A8 [SEQ ID NO: 3], CGEN-H7 [SEQ ID NO: 4], CGEN-G4 [SEQ ID NO: 5], CGEN-G6 [SEQ ID NO: 6], CGEN-F9 [SEQ ID NO: 7], CGEN-F12 [SEQ ID NO: 8], CGEN-C6 [SEQ ID NO: 9], CGEN-A11 [SEQ ID NO: 10], and CGEN-G2 [SEQ ID NO: 11] peptides and recombinant human Ang1 carrier-free (R&D Systems, Cat#923-AN-025/CF, Lot#FHW1507031), human Ang2 carrier-free (R&D Systems, Cat#623-AN-025/CF, Lot#BNO0457121), and human Ang4 carrier-free (R&D Systems, Cat#964-AN-025/CF, Lot#ELM025121) was conducted using the BIAcore biosensor (Pharmacia Biosensor, Uppsala, Sweden). The recombinant Ang1, Ang2, and Ang4 were immobilized directly to a CM5 sensor chip. Solutions containing 10-50 μM of CGEN-H2 [SEQ ID NO: 1], CGEN-H3 [SEQ ID NO: 2], CGEN-A8 [SEQ ID NO: 3], CGEN-H7 [SEQ ID NO: 4], CGEN-G4 [SEQ ID NO: 5], CGEN-G6 [SEQ ID NO: 6], CGEN-F9 [SEQ ID NO: 7], CGEN-F12 [SEQ ID NO: 8], CGEN-C6 [SEQ ID NO: 9], CGEN-A11 [SEQ ID NO: 10], and CGEN-G2 [SEQ ID NO: 11] peptides were injected into the sample chamber of the BIACORE device at a rate of […] and the interaction was monitored using surface plasmon resonance.
Solutions containing different concentrations of CGEN-G6 [SEQ ID NO: 6], CGEN-F9 [SEQ ID NO: 7], CGEN-F12 [SEQ ID NO: 8], CGEN-A11 [SEQ ID NO: 10], and CGEN-G2 [SEQ ID NO: 11] peptides (as indicated in Table 2) were injected into the sample chamber of the BIACORE device at a rate of […] and the interaction was monitored using surface plasmon resonance. As a background, the solutions were also injected onto an empty flow cell with no immobilized ligand and the in binding levels achieved were subtracted. Data was analyzed using BIAevaluation software. The affinity constant of the interaction between CGEN-G6 [SEQ ID NO: 6], CGEN-F9 [SEQ ID NO: 7], CGEN-F12 [SEQ ID NO: 8], CGEN-C6 [SEQ ID NO: 9], CGEN-A11 [SEQ ID NO: 10], and CGEN-G2 [SEQ ID NO: 11] and Ang1, Ang2, or Ang4 was determined by direct kinetic analysis. The 1:1 Langmuir binding model was used to fit kinetic data.
Table 2 summarizes results of analysis of CGEN-G6 [SEQ ID NO: 6], CGEN-F9 [SEQ ID NO: 7], CGEN-F12 [SEQ ID NO: 8], CGEN-A11 [SEQ ID NO: 10], and CGEN-G2 [SEQ ID NO: 11] interaction with Ang1, Ang2, or Ang4. Kinetic measurements were done at the indicated concentration range, and they are presented as KD (M). CGEN-F12 [SEQ ID NO: 8] bound to Ang1 and Ang4 with high affinity. The specificity of this binding is not clear.

binding to immobilized Ang2 (in words)	Structure (SMILES)
capable of binding	CC(=O)N[C@@H](CCC(=O)O)C(=O)N[C@H](C(=O)N[C@@H](Cc1ccccc1)C(=O)N[C@@H](CC(C)C)C(=O)N[C@@H](CO)C(=O)N[C@H](C(=O)N[C@@H](CC(N)=O)C(=O)N[C@@H](CCCCN)C(=O)N[C@@H](CC(C)C)C(=O)N[C@@H](CCC(=O)O)C(=O)N[C@@H](CC(N)=O)C(=O)N[C@@H](CCC(N)=O)C(N)=O)[C@@H](C)O)[C@@H](C)O [CGEN-A11, ETFLSTNKLENQ] (Ac-ETFLSTNKLENQ-NH2)
capable of binding	CC[C@H](C)[C@H](NC(=O)[C@H](C)NC(=O)[C@H](CCCNC(=N)N)NC(=O)[C@H](CCC(=O)O)NC(=O)[C@H](CC(C)C)NC(=O)[C@H](CCCCN)NC(=O)[C@H](CCCCN)NC(=O)[C@H](CC(C)C)NC(=O)[C@H](Cc1c[nH]c2ccccc12)NC(=O)[C@H](CCC(N)=O)NC(=O)[C@@H](NC(=O)[C@H](CC(N)=O)NC(=O)[C@H](CC(N)=O)NC(=O)[C@H](CCC(N)=O)NC(=O)[C@H](CC(C)C)NC(=O)[C@H](C)NC(=O)[C@H](CCC(N)=O)NC(=O)[C@H](CCC(=O)O)NC(=O)[C@H](CC(C)C)NC(=O)[C@H](CCC(N)=O)NC(=O)[C@H](CCCCN)NC(=O)[C@@H](NC(=O)[C@H](CCC(N)=O)NC(=O)[C@H](CCC(N)=O)NC(=O)[C@@H](NC(C)=O)[C@@H](C)O)C(C)C)[C@@H](C)O)C(=O)N[C@@H](CCCCN)C(=O)N[C@H](C(=O)N[C@H](C(=O)N[C@@H](CC(C)C)C(N)=O)[C@@H](C)CC)[C@@H](C)O [CGEN-G2] (Ac-TQQVKQLEQALQNNTQWLKKLERAIKTIL-NH2)
capable of binding	CSCC[C@H](NC(=O)[C@H](CC(C)C)NC(=O)[C@H](CC(=O)O)NC(C)=O)C(=O)N[C@@H](CCC(=O)O)C(=O)N[C@H](C(=O)N[C@H](C(=O)N[C@@H](CC(N)=O)C(=O)N[C@@H](CC(N)=O)C(=O)N[C@@H](CC(C)C)C(=O)N[C@@H](CC(C)C)C(=O)N[C@H](C(=O)N[C@@H](CCSC)C(=O)N[C@@H](CCSC)C(=O)N[C@@H](CO)C(=O)N[C@H](C(=O)N[C@@H](CO)C(=O)N[C@@H](CC(N)=O)C(=O)N[C@@H](CO)C(=O)N[C@@H](C)C(=O)N[C@@H](CCCCN)C(=O)N[C@@H](CC(=O)O)C(N)=O)[C@@H](C)O)[C@@H](C)O)C(C)C)[C@@H](C)O [CGEN-G6] (Ac-DLMETVNNLLTMMSTSNSAKD-NH2)
